Reference: patent US9113629B2, “4-amino-6-(4-substituted-phenyl)-picolinates and 6-amino-2-(4-substituted-phenyl)-pyrimidine-4-carboxylates and their use as herbicides” (DOW AGROSCIENCES LLC, priority 2013, dated 2015)

test system: not given; experiment: not given; settings: not given

Row | melting point | Compound
1 | 173 to 175 °C | Nc1cc(-c2cc(F)c(I)cc2F)nc(C(=O)O)c1Cl [Compound 131]

test system: Key Broadleaf Weed and Crop Species; experiment: Post-emergent Test II herbicidal activity (Table 5); assay type: in vivo; settings: post-emergence, 336 h; ABUTH: velvetleaf (Abutilon theophrasti); 70 g ai/ha; post-emergent; 14 days after application; read-out: Visual Growth Reduction (%) 14 Days After Application ABUTH
Method in brief: (§1)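 Test species were raised 7–21 d under greenhouse conditions until reaching the first or second true leaf, sprayed with formulated compound at 187 L/ha, and kept subirrigated to avoid wash-off. Fourteen days later, damage was rated visually on a 0–100% scale against untreated plants.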

Row | Compound | pest or weed control at 70 g/ha
2 | Nc1cc(-c2cc(F)c(I)cc2F)nc(C(=O)O)c1Cl [Compound 131] | 95 to 100%

same assay, conditions: post-emergence, 336 h; ABUTH: velvetleaf (Abutilon theophrasti); 140 g ai/ha; post-emergent; 14 days after application; read-out: Visual Growth Reduction (%) 14 Days After Application ABUTH

Row | Compound | pest or weed control at 140 g/ha
3 | Nc1cc(-c2cc(F)c(I)cc2F)nc(C(=O)O)c1Cl [Compound 131] | 95 to 100%

same assay, conditions: post-emergence, 336 h; AMARE: redroot pigweed (Amaranthus retroflexus); 70 g ai/ha; post-emergent; 14 days after application; read-out: Visual Growth Reduction (%) 14 Days After Application AMARE

Row | Compound | pest or weed control at 70 g/ha
4 | Nc1cc(-c2cc(F)c(I)cc2F)nc(C(=O)O)c1Cl [Compound 131] | 95 to 100%

same assay, conditions: post-emergence, 336 h; AMARE: redroot pigweed (Amaranthus retroflexus); 140 g ai/ha; post-emergent; 14 days after application; read-out: Visual Growth Reduction (%) 14 Days After Application AMARE

Row | Compound | pest or weed control at 140 g/ha
5 | Nc1cc(-c2cc(F)c(I)cc2F)nc(C(=O)O)c1Cl [Compound 131] | 95 to 100%

same assay, conditions: post-emergence, 336 h; BRSNN: oilseed-rape, canola (Brassica napus); 70 g ai/ha; post-emergent; 14 days after application; read-out: Visual Growth Reduction (%) 14 Days After Application BRSNN

Row | Compound | pest or weed control at 70 g/ha
6 | Nc1cc(-c2cc(F)c(I)cc2F)nc(C(=O)O)c1Cl [Compound 131] | 95 to 100%

same assay, conditions: post-emergence, 336 h; BRSNN: oilseed-rape, canola (Brassica napus); 140 g ai/ha; post-emergent; 14 days after application; read-out: Visual Growth Reduction (%) 14 Days After Application BRSNN

Row | Compound | pest or weed control at 140 g/ha
7 | Nc1cc(-c2cc(F)c(I)cc2F)nc(C(=O)O)c1Cl [Compound 131] | 95 to 100%

same assay, conditions: post-emergence, 336 h; CHEAL: lambsquarters (Chenopodium album); 70 g ai/ha; post-emergent; 14 days after application; read-out: Visual Growth Reduction (%) 14 Days After Application CHEAL

Row | Compound | pest or weed control at 70 g/ha
8 | Nc1cc(-c2cc(F)c(I)cc2F)nc(C(=O)O)c1Cl [Compound 131] | 95 to 100%

same assay, conditions: post-emergence, 336 h; CHEAL: lambsquarters (Chenopodium album); 140 g ai/ha; post-emergent; 14 days after application; read-out: Visual Growth Reduction (%) 14 Days After Application CHEAL

Row | Compound | pest or weed control at 140 g/ha
9 | Nc1cc(-c2cc(F)c(I)cc2F)nc(C(=O)O)c1Cl [Compound 131] | 95 to 100%

same assay, conditions: post-emergence, 336 h; EPHHL: wild poinsettia (Euphorbia heterophylla); 70 g ai/ha; post-emergent; 14 days after application; read-out: Visual Growth Reduction (%) 14 Days After Application EPHHL

Row | Compound | pest or weed control at 70 g/ha
10 | Nc1cc(-c2cc(F)c(I)cc2F)nc(C(=O)O)c1Cl [Compound 131] | 95 to 100%

same assay, conditions: post-emergence, 336 h; EPHHL: wild poinsettia (Euphorbia heterophylla); 140 g ai/ha; post-emergent; 14 days after application; read-out: Visual Growth Reduction (%) 14 Days After Application EPHHL

Row | Compound | pest or weed control at 140 g/ha
11 | Nc1cc(-c2cc(F)c(I)cc2F)nc(C(=O)O)c1Cl [Compound 131] | 95 to 100%

same assay, conditions: post-emergence, 336 h; HELAN: sunflower (Helianthus annuus); 70 g ai/ha; post-emergent; 14 days after application; read-out: Visual Growth Reduction (%) 14 Days After Application HELAN

Row | Compound | pest or weed control at 70 g/ha
12 | Nc1cc(-c2cc(F)c(I)cc2F)nc(C(=O)O)c1Cl [Compound 131] | 85 to 94%

same assay, conditions: post-emergence, 336 h; HELAN: sunflower (Helianthus annuus); 140 g ai/ha; post-emergent; 14 days after application; read-out: Visual Growth Reduction (%) 14 Days After Application HELAN

Row | Compound | pest or weed control at 140 g/ha
13 | Nc1cc(-c2cc(F)c(I)cc2F)nc(C(=O)O)c1Cl [Compound 131] | 95 to 100%

same assay, conditions: post-emergence, 336 h; VIOTR: wild pansy (Viola tricolor); 70 g ai/ha; post-emergent; 14 days after application; read-out: Visual Growth Reduction (%) 14 Days After Application VIOTR

Row | Compound | pest or weed control at 70 g/ha
14 | Nc1cc(-c2cc(F)c(I)cc2F)nc(C(=O)O)c1Cl [Compound 131] | 95 to 100%

same assay, conditions: post-emergence, 336 h; VIOTR: wild pansy (Viola tricolor); 140 g ai/ha; post-emergent; 14 days after application; read-out: Visual Growth Reduction (%) 14 Days After Application VIOTR

Row | Compound | pest or weed control at 140 g/ha
15 | Nc1cc(-c2cc(F)c(I)cc2F)nc(C(=O)O)c1Cl [Compound 131] | 95 to 100%

test system: Key Grass and Sedge Weeds as well as Grass Crops; experiment: Post-emergent Test II herbicidal activity (Table 6); assay type: in vivo; settings: Triticum aestivum, post-emergence, 336 h, TRZSS (wheat), application rate 70 g ai/ha, read-out: Visual Growth Reduction (%) 14 Days After Application, TRZSS
Method in brief: as §1

Row | Compound | pest or weed control at 70 g/ha
16 | Nc1cc(-c2cc(F)c(I)cc2F)nc(C(=O)O)c1Cl [Compound 131] | 60 to 74%

same assay, conditions: Triticum aestivum, post-emergence, 336 h, TRZSS (wheat), application rate 140 g ai/ha, read-out: Visual Growth Reduction (%) 14 Days After Application, TRZSS

Row | Compound | pest or weed control at 140 g/ha
17 | Nc1cc(-c2cc(F)c(I)cc2F)nc(C(=O)O)c1Cl [Compound 131] | 75 to 84%

same assay, conditions: post-emergence, 336 h, CYPES: yellow nutsedge (Cyperus esculentus), application rate 70 g ai/ha, read-out: Visual Growth Reduction (%) 14 Days After Application, CYPES

Row | Compound | pest or weed control at 70 g/ha
18 | Nc1cc(-c2cc(F)c(I)cc2F)nc(C(=O)O)c1Cl [Compound 131] | 85 to 94%

same assay, conditions: post-emergence, 336 h, CYPES: yellow nutsedge (Cyperus esculentus), application rate 140 g ai/ha, read-out: Visual Growth Reduction (%) 14 Days After Application, CYPES

Row | Compound | pest or weed control at 140 g/ha
19 | Nc1cc(-c2cc(F)c(I)cc2F)nc(C(=O)O)c1Cl [Compound 131] | 85 to 94%

same assay, conditions: post-emergence, 336 h, DIGSA: crabgrass (Digitaria sanguinalis), application rate 70 g ai/ha, read-out: Visual Growth Reduction (%) 14 Days After Application, DIGSA

Row | Compound | pest or weed control at 70 g/ha
20 | Nc1cc(-c2cc(F)c(I)cc2F)nc(C(=O)O)c1Cl [Compound 131] | 75 to 84%

same assay, conditions: post-emergence, 336 h, DIGSA: crabgrass (Digitaria sanguinalis), application rate 140 g ai/ha, read-out: Visual Growth Reduction (%) 14 Days After Application, DIGSA

Row | Compound | pest or weed control at 140 g/ha
21 | Nc1cc(-c2cc(F)c(I)cc2F)nc(C(=O)O)c1Cl [Compound 131] | 75 to 84%

same assay, conditions: post-emergence, 336 h, ECHCG: barnyardgrass (Echinochloa crus-galli), application rate 70 g ai/ha, read-out: Visual Growth Reduction (%) 14 Days After Application, ECHCG

Row | Compound | pest or weed control at 70 g/ha
22 | Nc1cc(-c2cc(F)c(I)cc2F)nc(C(=O)O)c1Cl [Compound 131] | 95 to 100%

same assay, conditions: post-emergence, 336 h, ECHCG: barnyardgrass (Echinochloa crus-galli), application rate 140 g ai/ha, read-out: Visual Growth Reduction (%) 14 Days After Application, ECHCG

Row | Compound | pest or weed control at 140 g/ha
23 | Nc1cc(-c2cc(F)c(I)cc2F)nc(C(=O)O)c1Cl [Compound 131] | 95 to 100%

same assay, conditions: post-emergence, 336 h, ORYSA: rice (Oryza sativa), application rate 70 g ai/ha, read-out: Visual Growth Reduction (%) 14 Days After Application, ORYSA

Row | Compound | pest or weed control at 70 g/ha
24 | Nc1cc(-c2cc(F)c(I)cc2F)nc(C(=O)O)c1Cl [Compound 131] | 0 to 29%

same assay, conditions: post-emergence, 336 h, ORYSA: rice (Oryza sativa), application rate 140 g ai/ha, read-out: Visual Growth Reduction (%) 14 Days After Application, ORYSA

Row | Compound | pest or weed control at 140 g/ha
25 | Nc1cc(-c2cc(F)c(I)cc2F)nc(C(=O)O)c1Cl [Compound 131] | 30 to 44%

same assay, conditions: post-emergence, 336 h, SETFA: giant foxtail (Setaria faberi), application rate 70 g ai/ha, read-out: Visual Growth Reduction (%) 14 Days After Application, SETFA

Row | Compound | pest or weed control at 70 g/ha
26 | Nc1cc(-c2cc(F)c(I)cc2F)nc(C(=O)O)c1Cl [Compound 131] | 95 to 100%

same assay, conditions: post-emergence, 336 h, SETFA: giant foxtail (Setaria faberi), application rate 140 g ai/ha, read-out: Visual Growth Reduction (%) 14 Days After Application, SETFA

Row | Compound | pest or weed control at 140 g/ha
27 | Nc1cc(-c2cc(F)c(I)cc2F)nc(C(=O)O)c1Cl [Compound 131] | 95 to 100%

same assay, conditions: post-emergence, 336 h, SORVU: grain sorghum (Sorghum vulgare), application rate 70 g ai/ha, read-out: Visual Growth Reduction (%) 14 Days After Application, SORVU

Row | Compound | pest or weed control at 70 g/ha
28 | Nc1cc(-c2cc(F)c(I)cc2F)nc(C(=O)O)c1Cl [Compound 131] | 60 to 74%

same assay, conditions: post-emergence, 336 h, SORVU: grain sorghum (Sorghum vulgare), application rate 140 g ai/ha, read-out: Visual Growth Reduction (%) 14 Days After Application, SORVU

Row | Compound | pest or weed control at 140 g/ha
29 | Nc1cc(-c2cc(F)c(I)cc2F)nc(C(=O)O)c1Cl [Compound 131] | 75 to 84%

same assay, conditions: post-emergence, 336 h, ZEAMX: maize, corn (Zea mays), application rate 70 g ai/ha, read-out: Visual Growth Reduction (%) 14 Days After Application, ZEAMX

Row | Compound | pest or weed control at 70 g/ha
30 | Nc1cc(-c2cc(F)c(I)cc2F)nc(C(=O)O)c1Cl [Compound 131] | 85 to 94%

same assay, conditions: post-emergence, 336 h, ZEAMX: maize, corn (Zea mays), application rate 140 g ai/ha, read-out: Visual Growth Reduction (%) 14 Days After Application, ZEAMX

Row | Compound | pest or weed control at 140 g/ha
31 | Nc1cc(-c2cc(F)c(I)cc2F)nc(C(=O)O)c1Cl [Compound 131] | 85 to 94%
